How the values were obtained:
[1] = tested on: bleomycin-induced ALI in C57/BL6 mice; assay: Murine model of bleomycin-induced ALI; conditions: for animals alive by day 12 following bleomycin instillation: bleomycin 1.2 U/kg i.t.; for mice survived to 14 days: bleomycin + compound
Experimental: C57/BL6 mice received bleomycin (1.2 U/kg) or sterile saline administered i.t. (intratracheally) and were then treated with FTY720, (S)-FTY720-phosphonate, (0.1 mg/kg i.p.) or PBS vehicle 3× a week until harvesting. Mice were followed for 14 days to assess mortality rates and multiple indices of lung injury.

[2] = tested on: lung vascular leakage in RILI mice; assay: ViSen FMT lung imaging of intravascular probe extravasation in RILI mice; format: in vivo, mouse; conditions: 0.1 mg/kg, 25 Gy, 6 weeks
Experimental: Lung imaging studies were also performed with assessment of RILI-induced extravasation of an intravascular probe.
To assess microvascular changes associated with RILI in real-time, mice were imaged with ViSen FMT 1500 Quantitative Tomography In Vivo Imaging System. Intergisens^750 NIR (ViSen Medicals, Bedford, Mass.) was used as a probe, which targets the vasculature as a selective non-peptide small molecule integrin αvβ3 antagonist and a near-infrared fluorochrome. Mice were injected with probe ([…], IV) at 6 weeks post radiation and imaged 24 hrs later. Probe intensity was quantified using TrueQuant 3D software (VisSen Medicals).

S1P receptor 1 (S1PR1) [3] = biological target: T1, S1P receptor 1 (S1PR1) (Homo sapiens, UniProt P21453); assay: S1PR1 protein expression in HPAEC by Western blot; format: cell-based; design: Cells were collected and S1PR1 expression level was detected by Western blot; endogenous in cells; host or cells: HPAEC (human pulmonary artery endothelial cells); conditions: for S1PR1 expression level compared to control: 1 μM (SEW2871 10 μM), 4 h
Source text: Cells were collected and S1PR1 expression level was detected by Western blot.

HPAEC [4] = assay: Pharmacologic inhibitor effects on barrier enhancement (TER); conditions: 1 μM agonist, 60 min; for % Inhibition of Maximal TER Response (of Agonist-Only Control), PTX: 2-h preincubation 100 ng/ml PTX; for % Inhibition of Maximal TER Response (of Agonist-Only Control), MβCD: 2-h preincubation 2 mM MβCD; for % Inhibition of Maximal TER Response (of Agonist-Only Control), Gen: 30-min preincubation 200 μM genistein
Experimental: Endothelial cells were grown to confluence in polycarbonate wells containing evaporated gold microelectrodes (surface area, 10^−3 cm^2) in series with a large gold counter electrode (1 cm^2) connected to a phase-sensitive lock-in amplifier. Current was applied across the electrodes by a 4,000-Hz AC voltage source with amplitude of 1 V in series with a 1 MΩ resistance to approximate a constant current source (˜1 μA). The in-phase and out-of-phase voltages between the electrodes were monitored in real time with the lock-in amplifier and subsequently converted to scalar measurements of transendothelial impedance, of which resistance was the primary focus. TER was monitored for 30 minutes to establish a baseline resistance (R0) which, for bovine pulmonary endothelium, was typically between 8 to 12×10^3Ω (wells with R0<7×10^3Ω were rejected). As cells adhere and spread out on the microelectrode, TER increases (maximal at confluence), whereas cell retraction, rounding, or loss of adhesion is reflected by a decrease in TER. These measurements provide a highly sensitive biophysical assay that indicates the state of cell shape and focal adhesion. Values from each microelectrode were pooled at discrete time points and plotted versus time as the mean±SE of the mean. TER values from each microelectrode were pooled as discrete time points and plotted versus time as the mean±S.E.M.
In this experiment, confluent HPAEC were plated on gold microelectrodes and then stimulated with 1 μM S1P, FTY720, 1R, 1S, 2R, or 2S after either a 2-h preincubation with 100 ng/ml PTX, 30-min preincubation with 200 μM genistein (Gen), or 2-h preincubation with 2 mM MβCD or their respective vehicle controls. Data were pooled from multiple TER experiments (4-10 independent experiments per condition) and expressed as percentage inhibition of maximal barrier enhancement at 60 min relative to agonist-only control.

HPAEC [5] = assay: Transendothelial electrical resistance (TER) of HPAEC; format: cell-based, human; conditions: for maximal TER change: 10 μM
Experimental: Cells were grown at 37° C. in a 5% CO2 incubator, and passages 6 to 9 were used for experiments. Media were changed 1 day before experimentation.

S1P receptor 1 (S1PR1) [6] = biological target: T1, S1P receptor 1 (S1PR1); assay: Ubiquitination of S1PR1 in HPAEC (immunoprecipitation, ubiquitin Ab); conditions: for ubiquitination of S1PR1 at 2 h: 1 μM (SEW2871 10 μM); for ubiquitination of S1PR1 at 1 h: 1 μM
Source text: S1PR1 was immunoprecipitated by S1PR1Ab, and ubiquitination of S1PR1 was detected by ubiquitin Ab.

[7] = tested on: LPS-induced lung injury in C57BL/6 mice; assay: LPS-induced murine lung injury model; conditions: for capillary leak as total BAL protein, relative to PBS control: 1S 0.1-5.0 mg/kg i.p. single dose 1 h after LPS 2.5 mg/kg i.t., FTY720 0.5 mg/kg, S1P 0.026 mg/kg; for peripheral blood leukocyte and lymphocyte levels relative to PBS controls: 18 h after LPS
Experimental: For experiments performed in intact animals, male C57BL/6 mice (8-10 weeks) were anesthetized with intraperitoneal ketamine and acetylpromazine mixture according to the approved protocol. Escherichia coli LPS solution (2.5 mg/kg) or sterile saline was instilled intratracheally via a 20-gauge catheter. Simultaneously, mice received either FTY720 or analogs (in doses: 0.01, 0.1, 0.5, 1, and 5 mg/kg i.p.) or PBS as vehicle. The animals were allowed to recover for 18 h. BAL and lungs were collected and stored at −70° C. for evaluation of lung injury.
Pure BAL fluids prepared for protein measurement or myeloperoxidase activity (MPO) lung homogenates were used to test albumin concentration. The assay was performed in 96-well plastic plates (Nalge Nunc A/S, Roskilde, Denmark). Plates were coated with mouse albumin (Bethyl Lab, Montgomery, Tex.), washed, and blocked. Aliquots (100-μl) of the sample or standard and 100 μl of goat anti-mouse albumin antibody (horseradish peroxidase-conjugated) (1:50,000) were then added, followed by incubation at 37° C. for 1 h. Finally, the substrate 3,3′,5,5′-tetramethylbenzidine was added for 10 min, and the reaction stopped by adding 100 μl of 2 M H2SO4. The absorbance at 450 nm was read on a kinetic microplate reader (Molecular Devices).
Myeloperoxidase (MPO) was isolated and measured from snap-frozen right lungs as follows (see also Remick et al., 1990, Am J Pathol 136: 49-60). The right lung was homogenized in 1 ml of 50 mM potassium phosphate, pH 6.0, with 0.5% hexadecyltrimethylammonium bromide. The resulting homogenate was sonicated and then centrifuged at 12,000 g for 15 min. The supernatant was mixed 1:30 with assay buffer (100 mM potassium phosphate, pH 6.0, 0.005% H2O2, 0.168 mg/ml o-dianisidine hydrochloride), and absorbance read at 490 nm. MPO units were calculated as the change in absorbance with respect to time.
Peripheral blood was examined by the Missouri University Research Animal Diagnostic Laboratory (Columbia, Mo.) for determination of total blood cell counts and differentials in blood samples.
Values are shown as the mean±S.E. Data were analyzed using a standard Student's t test or one-way analysis of variance, groups were compared by Newman-Keuls test, and significance in all cases was defined at p<0.05.

β-arrestin = conditions: 1 μM (SEW2871 10 μM; (S)-FTY720-phosphonate 1, 10, 50 μM), 5 h
Experimental: After another 2 h-incubation with fluorescence substrate, the fluorescence intensity (blue and green channels) were detected and the blue/green emission ratio was used as the activation indicator.

T1 sequence (P21453 whole entry): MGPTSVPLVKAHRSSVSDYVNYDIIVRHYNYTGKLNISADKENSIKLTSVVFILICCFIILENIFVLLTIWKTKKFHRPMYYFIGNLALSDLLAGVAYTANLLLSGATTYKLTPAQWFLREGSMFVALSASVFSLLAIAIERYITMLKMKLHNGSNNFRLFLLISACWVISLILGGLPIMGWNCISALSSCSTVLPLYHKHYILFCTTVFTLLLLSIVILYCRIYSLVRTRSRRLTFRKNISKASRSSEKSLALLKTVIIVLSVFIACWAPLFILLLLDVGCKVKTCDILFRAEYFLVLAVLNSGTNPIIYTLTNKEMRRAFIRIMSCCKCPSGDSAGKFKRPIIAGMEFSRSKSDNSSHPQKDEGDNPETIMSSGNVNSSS

| SMILES | animals alive by day 12 following bleomycin instillation ([1]; 0.1 mg/kg i.p. 3× a week) | mice survived to 14 days [1] | radiation-induced probe extravasation (probe intensity), FMT imaging [2] | S1PR1 expression level compared to control (S1P receptor 1 (S1PR1) [3]) | % Inhibition of Maximal TER Response (of Agonist-Only Control), PTX (HPAEC [4]) | % Inhibition of Maximal TER Response (of Agonist-Only Control), MβCD (HPAEC [4]) | % Inhibition of Maximal TER Response (of Agonist-Only Control), Gen (HPAEC [4]) | maximal TER change (HPAEC [5]; within 60 min) | ubiquitination of S1PR1 at 2 h (S1P receptor 1 (S1PR1) [6]) | ubiquitination of S1PR1 at 1 h (S1P receptor 1 (S1PR1) [6]) | capillary leak as total BAL protein, relative to PBS control ([7]; 18 h) | peripheral blood leukocyte and lymphocyte levels relative to PBS controls [7] | activation of β-arrestin (blue/green emission ratio) (β-arrestin) | also measured |
| --- | --- | --- | --- | --- | --- | --- | --- | --- | --- | --- | --- | --- | --- | --- |
| CCCCCCCCc1ccc(CC[C@@](N)(CO)CCP(=O)(O)O)cc1 [1S, (S)-3-amino-3-(hydroxymethyl)-5-(4-octylphenyl)pentylphosphonic acid] | 83% | 5 out of 6 | significant decreases | 87.6% | 92.8 (±2.6) % | 97.2 (±0.8) % | 51.9 (±21.0) % | even greater maximal TER elevation | does not induce ubiquitination | only slight ubiquitination | significantly reduced capillary leak | does not further alter peripheral blood leukocyte and lymphocyte levels | only slightly activated | BAL protein after 14 days, compared to FTY720 ([1]; 0.1 mg/kg i.p. 3× a week): Decreased BAL protein; S1PR1 expression, agonist without MG132 (S1P receptor 1 (S1PR1) [3]; 1 μM, 4 h (FIG. 18)): 89.5%; S1PR1 expression, agonist after MG132 pretreatment (S1P receptor 1 (S1PR1) [3]; MG132 10 μM 2 h, then 1 μM agonist 4 h): 99.2%; maximal percentage TER change compared with S1P and FTY720 (HPAEC [5]; 1 μM, within 60 min): greater maximal percentage TER change; BAL WBC accumulation ([7]; i.p. 1 h after LPS, 18 h): significantly reduced; LPS-induced albumin leakage into BAL ([7]; i.p. 1 h after LPS, 18 h): significantly reduced; LPS-induced albumin leakage into lung tissue ([7]; i.p. 1 h after LPS, 18 h): significantly reduced; lung tissue MPO activity ([7]; i.p. 1 h after LPS, 18 h): significantly reduced; hematologic toxicity ([7]; mouse, in vivo): without apparent hematologic toxicity; comparison with 1R, 2R, 2S in the LPS model ([7]; preliminary studies, data not shown): superior to the other barrier-promoting analogs |
| CCCCCCCCc1ccc(CCC(N)(CO)CO)cc1 [FTY720, 2-amino-2-[2-(4-octylphenyl)ethyl]propane-1,3-diol] | 17% | 1 out of the 6 | no evidence of protection | 35.0% | 84.0 (±9.1) % | 88.1 (±5.6) % | 86.2 (±10.7) % | somewhat barrier-disruptive | significant ubiquitination | only slight ubiquitination | reduction in permeability by 1S was comparable to that achieved by S1P or FTY720 | does not suppress circulating WBC levels | strongly activated | TER response (tracing) (HPAEC [5]; 1 μM): delayed onset of barrier enhancement |
